This note sets out measurements from PubChem BioAssay (NCI).

For orientation: GI50 means the concentration at which growth is held to half of that of the control. A word on the TGI: it is the concentration giving total growth inhibition. Low readings indicate greater sensitivity of the cells, high ones lower sensitivity of the cells.

Some test systems named below: HCT-116 colon; HT29 colon; BT-549 breast; SF-295 CNS; OVCAR-5 ovarian; NCI/ADR-RES ovarian; LOX IMVI melanoma; MOLT-4 leukemia.
Holding throughout (test): DTP human tumour cell line panel, 48 h

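Assay format: 96-well plates, 48-hour exposure. Here, GI50 denotes the concentration required for 50% inhibition of growth. TGI is the concentration that stops growth completely.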

On to `O=C(CNc1ccc2c(c1)C(=O)c1ccccc1C2=O)Nc1ccc2c(c1)C(=O)c1ccccc1C2=O`, for which the GI50 in the test with HCT-116 colon is 0.24 µM; with HT29 colon it was 0.451 µM; with BT-549 breast, 0.641 µM; in the test with SF-295 CNS, 1.46 µM; in the test on OVCAR-5 ovarian, 1.84 µM; in the test on NCI/ADR-RES ovarian, 0.819 µM. The GI50 in the test on LOX IMVI melanoma is 0.142 µM. The concentration for total growth inhibition (TGI) with HCT-116 colon worked out at 0.711 µM; in the test with HT29 colon, 1.69 µM; in the test with BT-549 breast, 1.99 µM; with SF-295 CNS, 2.89 µM; with OVCAR-5 ovarian it was 3.4 µM; in the test with NCI/ADR-RES ovarian it was 4.68 µM. This compound came in with a TGI with LOX IMVI melanoma of 0.317 µM.

Consider `Cc1ccc(/C=C2/SC(Nc3nc(-c4csc(NC5=NC(=O)/C(=C\c6ccc(C)cc6)S5)n4)cs3)=NC2=O)cc1`, for which the GI50 in the test on HT29 colon is 21.1 µM; with SF-295 CNS, 6.66 µM; in the test on MOLT-4 leukemia it was 18.5 µM; in the test on OVCAR-5 ovarian, 18.9 µM; with NCI/ADR-RES ovarian, 14.3 µM. Also, the TGI in the test with HT29 colon, in the test on SF-295 CNS, with MOLT-4 leukemia, in the test on OVCAR-5 ovarian and with NCI/ADR-RES ovarian was more than 50 µM in each case.

With `CCC/C(=N/N=C(N)N)c1ccc(NC(=O)c2cc3cc(OC)ccc3[nH]2)cc1`, the GI50 in the test on HT29 colon was 4.49 µM; with BT-549 breast it was 13.5 µM; in the test with SF-295 CNS it was 10.5 µM; with OVCAR-5 ovarian, 14.7 µM; in the test with NCI/ADR-RES ovarian, 79.7 µM. The TGI with HT29 colon is 20 µM; with BT-549 breast, 53.5 µM; in the test with SF-295 CNS it was 25.8 µM; in the test with OVCAR-5 ovarian it was 32.3 µM; with NCI/ADR-RES ovarian it was more than 100 µM.

As for `CCc1c(C#N)c(S[C@@H](C(N)=O)c2ccccc2)nc(N(C)C)c1C#N`, the GI50 with HCT-116 colon was more than 100 µM; with HT29 colon, more than 100 µM; in the test on SF-295 CNS, 3.81 µM; in the test with OVCAR-5 ovarian it was more than 100 µM; in the test with LOX IMVI melanoma it was more than 100 µM. The TGI is more than 100 µM in the test with HCT-116 colon; more than 100 µM in the test with HT29 colon; 55.3 µM in the test with SF-295 CNS; more than 100 µM in the test on OVCAR-5 ovarian; more than 100 µM in the test on LOX IMVI melanoma.

In the case of `O=C1C(Cl)=C(Nc2cccc(Cl)c2)C(=O)N1Cc1ccccc1Cl`, the GI50 in the test on HCT-116 colon was 1.03 µM; in the test on HT29 colon it was 5.45 µM; in the test with BT-549 breast, 4.31 µM; in the test with SF-295 CNS, 0.476 µM; with MOLT-4 leukemia, 0.37 µM; with LOX IMVI melanoma it was 1.64 µM. Besides, the TGI is 4.41 µM in the test on HCT-116 colon; more than 100 µM in the test with HT29 colon; 26 µM with BT-549 breast; 20.9 µM in the test with SF-295 CNS; more than 100 µM in the test on MOLT-4 leukemia; 3.76 µM in the test on LOX IMVI melanoma.

As for `Cc1ccccc1N=Nc1ccc(NC(=O)c2ccnn2C)c(C)c1`, the GI50 in the test with HCT-116 colon is 5.99 µM; with HT29 colon, more than 100 µM; with BT-549 breast it was 8.53 µM; in the test on SF-295 CNS it was 23.9 µM; in the test on OVCAR-5 ovarian it was more than 100 µM; in the test with NCI/ADR-RES ovarian, 63.7 µM. The GI50 with LOX IMVI melanoma was 72.2 µM. For the same compound, the TGI in the test on HCT-116 colon, in the test on HT29 colon, in the test with BT-549 breast, with SF-295 CNS, with OVCAR-5 ovarian and in the test with NCI/ADR-RES ovarian was more than 100 µM in each case. The same compound displayed a TGI in the test with LOX IMVI melanoma of more than 100 µM.

For the compound `O=NNc1ccc(S(=O)(=O)c2ccccc2)cn1`, the TGI in the test on HCT-116 colon, in the test on HT29 colon, in the test on BT-549 breast, in the test with SF-295 CNS, in the test on MOLT-4 leukemia and in the test on OVCAR-5 ovarian was more than 100 µM each time. Further, in the test with NCI/ADR-RES ovarian, the concentration for total growth inhibition (TGI) was more than 100 µM.

As for `CC(=O)[CH-]C(=O)c1ccccc1.CC(=O)[CH-]C(=O)c1ccccc1.[Eu+3].[OH-].[OH3+]`, the GI50 with HCT-116 colon, with HT29 colon, in the test on SF-295 CNS, in the test with MOLT-4 leukemia and with LOX IMVI melanoma was more than 100 µM throughout. Also, the TGI in the test on HCT-116 colon, in the test with HT29 colon, in the test with SF-295 CNS, in the test on MOLT-4 leukemia and in the test on LOX IMVI melanoma was more than 100 µM each time.

As to `c1ccc2[nH]c(-c3ccc(NN=Nc4ccncc4)cc3)nc2c1`, the GI50 was 26.3 µM in the test on HCT-116 colon; 4.39 µM with BT-549 breast; 16.4 µM with SF-295 CNS; more than 100 µM in the test on MOLT-4 leukemia; more than 100 µM with OVCAR-5 ovarian; more than 100 µM in the test with NCI/ADR-RES ovarian. Besides, the GI50 in the test on LOX IMVI melanoma is 6.59 µM. Besides, the total growth inhibition concentration (TGI) with HCT-116 colon, with BT-549 breast, in the test with SF-295 CNS, with MOLT-4 leukemia, with OVCAR-5 ovarian and in the test on NCI/ADR-RES ovarian was more than 100 µM throughout. The TGI with LOX IMVI melanoma came to 38.4 µM.

In the case of `O=C1/C(=C/c2ccccc2)CN(C(=O)c2cccnc2)C/C1=C\c1ccccc1`, the GI50 in the test on HCT-116 colon is 0.319 µM; in the test with HT29 colon, 0.241 µM; with SF-295 CNS, 1.79 µM; in the test on MOLT-4 leukemia, 0.752 µM; with OVCAR-5 ovarian, 2 µM; in the test with NCI/ADR-RES ovarian, 3.03 µM. Moreover, in the test on LOX IMVI melanoma, the GI50 was 0.21 µM. Moreover, the total growth inhibition concentration (TGI) in the test with HCT-116 colon is 0.88 µM; with HT29 colon, 0.563 µM; with SF-295 CNS, 4.23 µM; with MOLT-4 leukemia it was more than 100 µM; in the test on OVCAR-5 ovarian, 5.13 µM; in the test with NCI/ADR-RES ovarian, 21.2 µM. The compound further yielded a TGI in the test on LOX IMVI melanoma of 0.483 µM.

Consider `O=c1ccn(C2OC(CO/N=C/c3ccc(O)c(O)c3O)C(O)C2O)c(=O)[nH]1` (centres undefined), for which the GI50 with HCT-116 colon is 20.6 µM; in the test on HT29 colon, 28.9 µM; in the test with BT-549 breast, 68.4 µM; in the test with SF-295 CNS, 10.5 µM; in the test on OVCAR-5 ovarian, more than 100 µM; in the test on NCI/ADR-RES ovarian, 20.5 µM. Moreover, in the test on LOX IMVI melanoma, the GI50 is 16.1 µM. The TGI in the test on HCT-116 colon is 58.7 µM; with HT29 colon, 84.3 µM; in the test on BT-549 breast, more than 100 µM; with SF-295 CNS it was 24.1 µM; in the test on OVCAR-5 ovarian, more than 100 µM; in the test with NCI/ADR-RES ovarian it was 49 µM. This compound also registered a TGI in the test on LOX IMVI melanoma of 32.2 µM.
